Measurements published in ChEMBL document CHEMBL1201862, “PubChem BioAssay data set” (2004).
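Interpolation was linear, between the two tested concentrations surrounding the appropriate level; five concentrations were tested over 48 hours in 96-well plates. GI50: concentration for 50% inhibition of growth.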 Calls of active or inactive are those of the source. Cut-off read from the data, not from the text of the source: active = GI50 up to about 1.1 µM and inactive = higher.

What was measured:
Assay in all cases: growth of human tumour cells (NCI), 48 h
XF498 = test system: XF498
RXF 631 = test system: RXF 631
LXFL 529 = test system: LXFL 529
DMS-114 = test system: DMS-114
SNB-78 = test system: SNB-78
DMS-273 = test system: DMS-273
DLD-1 = test system: DLD-1
M19-MEL = test system: M19-MEL

SMILES	GI50 (XF498)	GI50 (RXF 631)	GI50 (LXFL 529)	GI50 (DMS-114)	GI50 (SNB-78)	GI50 (DMS-273)	GI50 (DLD-1)	GI50 (M19-MEL)
O=C(NN1C(=O)CSC1c1ccc(Cl)c(Cl)c1)c1ccncc1 (stereo unspecified)	48 µM (inactive)	94.4 µM (inactive)	71.6 µM (inactive)	30.6 µM (inactive)	64.6 µM (inactive)	64.3 µM (inactive)	38.6 µM (inactive)	–
Cc1ccc(Oc2ccc(C)cc2[N+](=O)[O-])cc1	0.275 µM (active)	> 100 µM (inactive)	43.6 µM (inactive)	28.4 µM (inactive)	31.6 µM (inactive)	> 100 µM (inactive)	77.4 µM (inactive)	79.4 µM (inactive)
Cc1ccc(/C=C/C(=O)c2ccc([N+](=O)[O-])cc2)cc1	> 100 µM (inactive)	> 100 µM (inactive)	74.3 µM (inactive)	–	> 100 µM (inactive)	> 100 µM (inactive)	99.8 µM (inactive)	> 100 µM (inactive)
CN1C(=N\S(=O)(=O)c2ccc(Cl)cc2)/C(=N/N=P(c2ccccc2)(c2ccccc2)c2ccccc2)c2ccccc21	> 100 µM (inactive)	> 100 µM (inactive)	> 100 µM (inactive)	–	> 100 µM (inactive)	> 100 µM (inactive)	> 100 µM (inactive)	> 100 µM (inactive)
CC(=O)N[C@@H]1C(O)CN2C(=O)C(=O)O[C@H](C(O)CO)[C@@H]12 (stereo partly specified)	> 100 µM (inactive)	> 100 µM (inactive)	> 100 µM (inactive)	> 100 µM (inactive)	> 100 µM (inactive)	> 100 µM (inactive)	> 100 µM (inactive)	> 100 µM (inactive)
C/C=C1/C(=Cc2[nH]c(C=c3[nH]/c(=C/C4=NC(=O)C(CC)=C4C)c(C)c3CCC(=O)O)c(CCC(=O)O)c2C)NC(=O)C1C (stereo unspecified)	8.63 µM (inactive)	6.65 µM (inactive)	2.06 µM (inactive)	19.1 µM (inactive)	11.5 µM (inactive)	5.45 µM (inactive)	2.58 µM (inactive)	10.9 µM (inactive)
Cc1ccc(NC(=O)/C(CC(=O)c2c[n+]([O-])c3ccccc3[n+]2[O-])=N\NC(=O)C[n+]2ccccc2)cc1	> 100 µM (inactive)	> 100 µM (inactive)	> 100 µM (inactive)	> 100 µM (inactive)	> 100 µM (inactive)	> 100 µM (inactive)	> 100 µM (inactive)	> 100 µM (inactive)
O=P(c1ccccc1)(c1ccccc1)C1CC=C(c2ccccc2)C2(CCCC2)C1 (stereo unspecified)	65.5 µM (inactive)	40.1 µM (inactive)	> 100 µM (inactive)	34.4 µM (inactive)	> 100 µM (inactive)	> 100 µM (inactive)	48.9 µM (inactive)	43.7 µM (inactive)
COC(=O)[C@]1(C)CCCC2(C)C1CC[C@H]1C=C(C)[C@H]3CCC12C3 (stereo partly specified)	> 100 µM (inactive)	> 100 µM (inactive)	> 100 µM (inactive)	86.9 µM (inactive)	> 100 µM (inactive)	–	> 100 µM (inactive)	–
CC1CCCP(=O)(c2ccccc2)CC1 (stereo unspecified)	–	> 100 µM (inactive)	> 100 µM (inactive)	> 100 µM (inactive)	> 100 µM (inactive)	> 100 µM (inactive)	> 100 µM (inactive)	> 100 µM (inactive)
O=C1c2cccc3c2C(=O)c2c(cccc21)OCCOCCOCCOCCO3	–	91.6 µM (inactive)	> 100 µM (inactive)	86.1 µM (inactive)	> 100 µM (inactive)	> 100 µM (inactive)	> 100 µM (inactive)	> 100 µM (inactive)
